In article PMC8151276, “An Integrated Approach toward NanoBRET Tracers for Analysis of GPCR Ligand Engagement” (Molecules, 2021):

Legend:
Type in all cases: binding
[1] = target: T1, GRM2 (Homo sapiens, UniProt Q14416); experiment: NanoBRET screen HiBiT-GRM2 in HEK293; conditions: GRM2
T1 construct: purchased Promega (in-house HiBiT-GPCR construct library, NanoBRET)
Method: (§1) Each tracer candidate was screened across the entire library of HiBiT-GPCR constructs using NanoBRET as the detection modality. As depicted in Figure 4A, the specificity of interactions was evaluated through decrease in BRET due to competitive displacement of a bound tracer by excess parental compound. Each tracer was analyzed for binding to each HiBiT-GPCR fusion in the absence and in the presence of competing parental compound. Briefly, HEK293 cells were transfected with HiBiT-GPCR constructs diluted into promoterless DNA to reduce expression and maximize translocation to the cell surface. Each tracer candidate was then screened at concentrations of 1 μM and 0.1 μM across cells expressing these fusions. Cells were treated for 1.5 h with tracer either alone or in the presence of 20 μM competing parental compound (i.e., control). BRET was measured upon addition of purified LgBiT and subsequent complementation with HiBiT genetically fused to a GPCR. The specificity of interactions was assessed through a decrease in BRET signal due to competitive displacement of the bound tracer. To further gauge the robustness of these interactions, the fold response over the control (i.e., BRETtracer/BRETcontrol) was calculated. We chose a 1.5-fold response, which translates to ≥7-fold signal over noise as the minimal threshold required to score an interaction as positive. […]. Below we highlight the screening results obtained for our exemplary fluorescent tracers based on Clozapine, Amitriptyline and AZD1283.
(§2) HiBiT-GPCR DNA constructs were diluted in 10 mM Tris pH 8 to a final concentration of 0.01 μg/μL, arrayed in 96-well plates and stored at −20 °C. For transfection, HEK293 cells were suspended in Opti-MEM (without phenol red) supplemented with 2% fetal bovine serum (Seradigm) and 100 units/mL penicillin–streptomycin (Gibco) at a final concentration of 220,000 cells/mL and dispensed into white 96-well plates at 90 μL/well. Subsequent transfections and screens were carried using an Agilent Bravo Automated Liquid Handling Platform. First, the 96-well HiBiT DNA arrays were diluted 25-fold in Opti-MEM (without serum or phenol red) to a final concentration of 0.0004 μg/μL and 20 μL of the diluted DNAs were transferred into new 96-well plates. Next, promoterless carrier DNA (1 μg/μL) was diluted 25-fold (0.04 μg/μL) and then dispensed into the diluted arrays at 20 μL/well. Following brief mixing, Viafect transfection reagent (Promega) diluted 16-fold into Opti-MEM was dispensed into the plates at 40 μL/well. After mixing by pipetting, plates were incubated for 10 min on the pipetting station deck. The DNA-transfection reagent complexes were then added to plates containing cells. To facilitate the screen, 10 μL of DNA-transfection reagent complexes were added in duplicates to the top 4 and bottom 4 rows, resulting in two identical 48-well arrays per plate. Plates with transfected cells were incubated for 18–20 h at 37 °C/5% CO2. A screen of each tracer across the entire library using two different concentrations requires duplicate plates of transfected cells. Depending on the number of tracers being screened, transfections can be scaled up using the same ratios. The next day, for each tracer, four 20× screening solutions in tracer dilution buffer (Promega) were prepared: two duplicates at final concentration of 20 μM and two duplicates at a final concentration of 2 μM. A competing unmodified compound was added to one of each duplicate at a final concentration of 400 μM. The four resulting solutions were diluted 4-fold in Opti-MEM without serum or phenol red to generate 5× solutions (5 µM and 0.5 µM tracer +/− 100 μM competing compound). To screen the library, a BioTek MultiFlo FX liquid dispenser was used to dispense 22.5 µL of tracer solution to the top 4 rows and 22.5 µL tracer + competing compound solution to the 4 bottom rows. Plates were briefly mixed on an orbital shaker and incubated for 1.5 h at room temperature. […]

[2] = target: T2, HCRTR2 (Homo sapiens, UniProt O43614); experiment: NanoBRET screen HiBiT-HCRTR2 in HEK293; conditions: HCRTR2
T2 construct: purchased Promega (in-house HiBiT-GPCR construct library, NanoBRET)
T2 sequence (O43614 1-444): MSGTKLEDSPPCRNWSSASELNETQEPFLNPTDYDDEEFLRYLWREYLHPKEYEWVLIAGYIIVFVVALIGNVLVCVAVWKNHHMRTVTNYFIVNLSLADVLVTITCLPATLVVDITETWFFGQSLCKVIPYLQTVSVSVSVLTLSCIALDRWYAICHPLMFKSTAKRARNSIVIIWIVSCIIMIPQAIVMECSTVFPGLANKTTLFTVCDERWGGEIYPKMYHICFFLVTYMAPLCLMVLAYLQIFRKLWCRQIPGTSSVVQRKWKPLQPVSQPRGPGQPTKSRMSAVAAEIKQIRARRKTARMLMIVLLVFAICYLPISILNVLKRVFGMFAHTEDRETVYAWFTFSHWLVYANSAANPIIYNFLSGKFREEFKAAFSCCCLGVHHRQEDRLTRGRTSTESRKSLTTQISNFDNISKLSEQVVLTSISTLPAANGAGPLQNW
Method: as §1, §2

[3] = target: T3, FZD5 (Homo sapiens, UniProt Q13467); experiment: NanoBRET screen HiBiT-FZD5 in HEK293; conditions: FZD5
T3 construct: purchased Promega (in-house HiBiT-GPCR construct library, NanoBRET)
Method: as §1, §2

T3 sequence (Q13467 27-585): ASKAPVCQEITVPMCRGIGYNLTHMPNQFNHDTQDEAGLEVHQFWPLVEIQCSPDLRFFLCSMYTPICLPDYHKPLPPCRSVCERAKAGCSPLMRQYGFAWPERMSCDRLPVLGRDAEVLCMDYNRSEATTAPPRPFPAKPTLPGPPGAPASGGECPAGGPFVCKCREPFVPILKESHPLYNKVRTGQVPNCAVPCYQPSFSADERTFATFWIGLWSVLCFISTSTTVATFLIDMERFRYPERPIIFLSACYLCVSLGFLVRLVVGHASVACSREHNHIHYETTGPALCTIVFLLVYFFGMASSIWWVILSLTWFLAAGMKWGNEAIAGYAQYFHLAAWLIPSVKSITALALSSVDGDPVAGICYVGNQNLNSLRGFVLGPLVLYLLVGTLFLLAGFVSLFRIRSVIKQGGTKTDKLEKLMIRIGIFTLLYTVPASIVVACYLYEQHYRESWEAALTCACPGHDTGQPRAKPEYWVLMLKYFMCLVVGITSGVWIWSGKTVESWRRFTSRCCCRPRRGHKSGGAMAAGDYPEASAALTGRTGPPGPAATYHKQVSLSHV
T1 sequence (Q14416 19-872): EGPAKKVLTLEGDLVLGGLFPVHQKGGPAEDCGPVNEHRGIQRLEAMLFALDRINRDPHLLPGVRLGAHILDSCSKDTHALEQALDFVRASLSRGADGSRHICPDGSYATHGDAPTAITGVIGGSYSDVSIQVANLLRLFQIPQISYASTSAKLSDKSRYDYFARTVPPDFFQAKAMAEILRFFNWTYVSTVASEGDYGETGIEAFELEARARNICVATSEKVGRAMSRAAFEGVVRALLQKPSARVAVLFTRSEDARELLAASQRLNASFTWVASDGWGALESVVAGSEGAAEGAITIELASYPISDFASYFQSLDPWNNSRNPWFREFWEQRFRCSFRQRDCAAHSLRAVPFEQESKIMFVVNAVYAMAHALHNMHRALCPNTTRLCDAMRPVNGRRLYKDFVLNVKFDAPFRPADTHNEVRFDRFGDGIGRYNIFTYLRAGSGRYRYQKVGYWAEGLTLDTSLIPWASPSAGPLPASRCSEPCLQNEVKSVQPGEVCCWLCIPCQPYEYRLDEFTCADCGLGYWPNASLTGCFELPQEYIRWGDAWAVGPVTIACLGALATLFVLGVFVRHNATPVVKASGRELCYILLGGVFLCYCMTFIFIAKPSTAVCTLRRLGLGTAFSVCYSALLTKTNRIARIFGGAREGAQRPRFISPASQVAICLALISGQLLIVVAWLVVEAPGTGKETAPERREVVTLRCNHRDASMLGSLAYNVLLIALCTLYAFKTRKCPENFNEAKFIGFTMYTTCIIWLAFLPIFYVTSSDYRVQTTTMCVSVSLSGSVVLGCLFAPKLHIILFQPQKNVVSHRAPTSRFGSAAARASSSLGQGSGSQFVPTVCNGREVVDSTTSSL

Structure (SMILES)	NanoBRET Fold Response ([1]; tracer 0.1μM)	NanoBRET Fold Response ([1]; tracer 1μM)	NanoBRET Fold Response ([2]; tracer 0.1μM)	NanoBRET Fold Response ([2]; tracer 1μM)	NanoBRET Fold Response ([3]; tracer 0.1μM)	NanoBRET Fold Response ([3]; tracer 1μM)
O=C(CCc1ccc2n1[B-](F)(F)[N+]1=C(c3ccc[nH]3)C=CC1=C2)NCCOCCOCCNC(=O)OCCOCCN1CCN(C2=Nc3ccccc3Sc3ccccc32)CC1 [Quetiapine-a-2-NB590]	0.92	1.06	1.01	0.84	1.03	0.91
Cc1nc2n(c(=O)c1CCN1CCC(c3noc4cc(F)ccc34)CC1)CCCC2OC(=O)NCCOCCOCCOCCOCCNC(=O)CCc1ccc2n1[B-](F)(F)[N+]1=C(c3ccc[nH]3)C=CC1=C2 (stereo not drawn) [Risperidone-2-NB590]	0.96	1.04	0.98	0.96	0.95	0.99
CC(C)N(CC[C@H](c1ccccc1)c1cc(CCNC(=O)CCOCCOCCOCCOCCNC(=O)CCc2ccc3n2[B-](F)(F)[N+]2=C(c4ccc[nH]4)C=CC2=C3)ccc1O)C(C)C [Tolterodine-2-NB590]	0.99	0.97	1.04	1.00	0.87	1.07
CC(C)N(CC[C@H](c1ccccc1)c1cc(CCNC(=O)c2ccc(CNC(=O)CCc3ccc4n3[B-](F)(F)[N+]3=C(c5ccc[nH]5)C=CC3=C4)cc2)ccc1O)C(C)C [Tolterodine-BZ-NB590]	1.00	0.15	0.91	1.06	1.12	1.03
CCCn1c(=O)c2[nH]c(-c3ccc(OCC(=O)NCCNC(=O)CCOCCNC(=O)c4ccc(CNC(=O)CCc5ccc6n5[B-](F)(F)[N+]5=C(c7ccc[nH]7)C=CC5=C6)cc4)cc3)nc2n(CCC)c1=O [XAC-3-NB590]	1.01	1.03	1.06	0.97	1.13	0.95
